Laboratory results as given in patent US20080213250A1, “Use of Eph Receptor Inhibitors for the Treatment of Neurodegenerative Diseases” (priority 2004, published 2008).

What was measured:
EphA6 = molecular target: T1, EphA6 (Mus musculus, UniProt Q62413); assay: Chemical proteomics pull-down with immobilized compound, LC-MS/MS identification; details: maximum in any chemical proteomics experiment
T1 sequence (Q62413 23-1035): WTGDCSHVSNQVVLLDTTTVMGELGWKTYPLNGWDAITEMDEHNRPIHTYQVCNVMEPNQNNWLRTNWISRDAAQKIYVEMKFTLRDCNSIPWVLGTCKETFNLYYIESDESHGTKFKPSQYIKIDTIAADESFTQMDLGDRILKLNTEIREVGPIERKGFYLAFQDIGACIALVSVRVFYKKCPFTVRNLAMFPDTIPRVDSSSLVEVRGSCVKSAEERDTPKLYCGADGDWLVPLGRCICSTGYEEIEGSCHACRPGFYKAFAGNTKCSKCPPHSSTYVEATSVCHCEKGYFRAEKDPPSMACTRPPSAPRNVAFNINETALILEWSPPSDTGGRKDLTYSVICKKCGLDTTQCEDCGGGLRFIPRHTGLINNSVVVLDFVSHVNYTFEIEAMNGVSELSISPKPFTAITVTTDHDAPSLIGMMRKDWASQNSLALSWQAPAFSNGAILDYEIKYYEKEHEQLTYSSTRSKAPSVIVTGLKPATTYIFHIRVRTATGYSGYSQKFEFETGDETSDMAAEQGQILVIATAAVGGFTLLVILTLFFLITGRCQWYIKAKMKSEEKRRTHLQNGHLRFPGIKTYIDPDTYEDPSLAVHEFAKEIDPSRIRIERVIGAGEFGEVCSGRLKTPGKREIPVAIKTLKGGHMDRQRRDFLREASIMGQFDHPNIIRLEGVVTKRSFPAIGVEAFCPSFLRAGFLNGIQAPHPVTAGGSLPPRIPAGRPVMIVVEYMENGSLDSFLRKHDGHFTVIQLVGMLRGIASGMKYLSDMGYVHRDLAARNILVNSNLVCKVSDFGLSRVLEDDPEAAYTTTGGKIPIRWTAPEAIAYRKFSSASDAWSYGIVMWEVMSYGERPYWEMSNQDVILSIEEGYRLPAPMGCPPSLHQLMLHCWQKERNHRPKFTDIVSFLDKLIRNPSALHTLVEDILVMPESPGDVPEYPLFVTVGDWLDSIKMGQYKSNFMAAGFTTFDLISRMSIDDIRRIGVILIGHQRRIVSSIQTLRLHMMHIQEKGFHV

TAP-tagged Eph kinases [1] = assay: Autophosphorylation of TAP-tagged Eph kinases in cells; type: cell-based; details: in cells (FIG. 2)
Procedure: Cells are plated in 6-well plates in growth medium (see above). To test potential modulators, preferably inhibitors, of Eph kinase tyrosine phosphorylation, cells are starved in serum-free medium for 4 h. Under these conditions, Eph-TAP kinase is partially constitutively phosphorylated-presumably through autophosphorylation that is commonly associated with over-expression of receptor tyrosine kinases. This feature is exploited to monitor the effect of Eph kinase modulators. Test compounds are diluted (from a stock in DMSO) in serum-free medium and added to cells for indicated times. Cells are chilled on ice and washed with ice-cold PBS. They are then lysed in 300 μl lysis buffer (50 mM Tris-HCl, 1% NP-40, 0.05% SDS, 100 mM NaCl, 1.5 mM MgCl2, 2 mM EDTA, 5% glycerol, pH 7.6) for 20 min at 4 °C and cleared by centrifugation at 16,100×g in a table-top centrifuge for 20 min.
(§1) Lysates are subsequently incubated with 20 μl pre-washed rabbit IgG beads (Sigma) for 2 h with constant agitation at 4° C. Beads are finally washed with 1 ml of lysis buffer and immobilized protein complexes are eluted by boiling in 40 μl SDS sample buffer.
Blot membranes are probed with monoclonal antibody 4G10 (Upstate Biotechnology) or with HRP-coupled PAP antibody (see above).

TAP-tagged Eph kinases [2] = assay: Autophosphorylation of TAP-tagged Eph kinases in-vitro; type: biochemical; details: data not shown
EphB2-TAP = molecular target: T2, EphB2-TAP (Homo sapiens, UniProt P29323); assay: Cellular Eph kinase tyrosine phosphorylation assay; type: cell-based; details: SK-N-BE2 neuroblastoma cells, treatment 10 min. at 37 °C, Western blot anti-phosphotyrosine
T2 construct: The cDNAs encoding the complete ORF are obtained by RT-PCR; expressed in transfected cells; host or cells: SK-N-BE2 neuroblastoma cells (ATCC CRL-2271), retroviral transduction
T2 sequence (P29323 19-1055): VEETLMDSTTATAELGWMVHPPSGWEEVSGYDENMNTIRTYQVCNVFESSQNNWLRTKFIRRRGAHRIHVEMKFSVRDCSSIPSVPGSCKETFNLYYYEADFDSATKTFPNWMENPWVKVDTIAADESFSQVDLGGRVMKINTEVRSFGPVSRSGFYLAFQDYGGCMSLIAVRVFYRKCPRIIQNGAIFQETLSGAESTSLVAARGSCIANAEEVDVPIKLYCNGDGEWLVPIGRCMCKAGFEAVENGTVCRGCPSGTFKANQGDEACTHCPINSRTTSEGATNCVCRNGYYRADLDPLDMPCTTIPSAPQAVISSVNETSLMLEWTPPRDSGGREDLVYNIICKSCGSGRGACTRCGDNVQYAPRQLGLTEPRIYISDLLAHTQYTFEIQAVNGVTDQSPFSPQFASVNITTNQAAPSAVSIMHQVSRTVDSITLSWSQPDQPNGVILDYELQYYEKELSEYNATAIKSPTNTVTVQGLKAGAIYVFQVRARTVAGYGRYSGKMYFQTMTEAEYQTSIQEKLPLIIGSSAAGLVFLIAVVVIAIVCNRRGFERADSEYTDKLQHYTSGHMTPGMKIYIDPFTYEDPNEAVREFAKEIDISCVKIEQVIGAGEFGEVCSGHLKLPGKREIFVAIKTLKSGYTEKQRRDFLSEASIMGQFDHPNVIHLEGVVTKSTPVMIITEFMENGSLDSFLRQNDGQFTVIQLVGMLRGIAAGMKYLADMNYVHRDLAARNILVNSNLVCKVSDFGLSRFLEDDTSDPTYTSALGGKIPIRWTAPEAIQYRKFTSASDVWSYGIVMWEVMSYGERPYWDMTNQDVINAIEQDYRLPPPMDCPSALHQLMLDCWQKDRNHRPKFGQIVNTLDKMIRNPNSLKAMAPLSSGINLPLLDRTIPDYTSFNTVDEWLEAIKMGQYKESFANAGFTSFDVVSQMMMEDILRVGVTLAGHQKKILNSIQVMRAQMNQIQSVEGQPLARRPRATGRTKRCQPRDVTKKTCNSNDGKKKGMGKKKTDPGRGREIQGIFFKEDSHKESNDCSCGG
Procedure: (§2) Following treatment, cells were lysed in a detergent-containing buffer and TAP-tagged Eph kinases were captured with IgG beads. Bound TAP-tagged proteins were analyzed by SDS-PAGE and Western blotting, utilizing either anti-phosphotyrosine or anti-TAP antibodies for detection.
(§3) Cells are plated in 6-well plates in growth medium (see above). […] This feature is exploited to monitor the effect of Eph kinase modulators. Test compounds are diluted (from a stock in DMSO) in serum-free medium and added to cells for indicated times. Cells are chilled on ice and washed with ice-cold PBS. They are then lysed in 300 μl lysis buffer (50 mM Tris-HCl, 1% NP-40, 0.05% SDS, 100 mM NaCl, 1.5 mM MgCl2, 2 mM EDTA, 5% glycerol, pH 7.6) for 20 min at 4 °C and cleared by centrifugation at 16,100×g in a table-top centrifuge for 20 min.
as §1

EphA4-TAP = molecular target: T3, EphA4-TAP (Homo sapiens, UniProt P54764); assay: Cellular Eph kinase tyrosine phosphorylation assay; type: cell-based; details: SK-N-BE2 neuroblastoma cells, treatment 10 min. at 37 °C, Western blot anti-phosphotyrosine
T3 construct: The cDNAs encoding the complete ORF are obtained by RT-PCR; expressed in transfected cells; host or cells: SK-N-BE2 neuroblastoma cells (ATCC CRL-2271), retroviral transduction
Procedure: as §2, §3, §1

T3 sequence (P54764 20-986): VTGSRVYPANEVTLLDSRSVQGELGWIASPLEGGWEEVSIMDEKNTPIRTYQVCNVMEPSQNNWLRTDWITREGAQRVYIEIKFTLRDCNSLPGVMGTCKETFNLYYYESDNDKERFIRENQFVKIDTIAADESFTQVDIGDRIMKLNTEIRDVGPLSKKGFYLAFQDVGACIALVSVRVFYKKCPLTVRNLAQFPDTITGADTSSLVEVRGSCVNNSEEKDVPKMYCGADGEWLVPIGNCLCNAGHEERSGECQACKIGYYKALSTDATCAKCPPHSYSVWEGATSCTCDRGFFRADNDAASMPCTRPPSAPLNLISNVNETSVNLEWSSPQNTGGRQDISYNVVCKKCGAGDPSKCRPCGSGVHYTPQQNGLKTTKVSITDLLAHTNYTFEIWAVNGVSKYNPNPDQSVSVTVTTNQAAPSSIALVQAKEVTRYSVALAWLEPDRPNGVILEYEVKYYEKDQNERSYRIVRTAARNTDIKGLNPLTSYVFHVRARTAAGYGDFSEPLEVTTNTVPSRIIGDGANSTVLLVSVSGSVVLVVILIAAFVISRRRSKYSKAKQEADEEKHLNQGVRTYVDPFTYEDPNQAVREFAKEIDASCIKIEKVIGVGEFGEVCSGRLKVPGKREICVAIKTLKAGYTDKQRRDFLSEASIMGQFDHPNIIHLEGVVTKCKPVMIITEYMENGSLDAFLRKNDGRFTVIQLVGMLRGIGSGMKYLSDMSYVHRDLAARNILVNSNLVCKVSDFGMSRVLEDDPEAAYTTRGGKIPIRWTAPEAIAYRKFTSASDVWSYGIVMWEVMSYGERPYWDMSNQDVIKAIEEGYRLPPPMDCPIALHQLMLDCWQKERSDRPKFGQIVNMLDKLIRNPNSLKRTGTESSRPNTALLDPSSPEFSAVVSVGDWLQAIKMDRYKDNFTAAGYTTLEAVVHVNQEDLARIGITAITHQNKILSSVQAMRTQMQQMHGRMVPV

maximal number of non-redundant peptides identified, EphA6 (EphA6) | SMILES | inhibition of autophosphorylation of TAP-tagged Eph kinases in cells (TAP-tagged Eph kinases [1]) | inhibition of autophosphorylation of TAP-tagged Eph kinases in-vitro (TAP-tagged Eph kinases [2]) | tyrosine phosphorylation of EphB2-TAP (EphB2-TAP) | tyrosine phosphorylation of EphA4-TAP (EphA4-TAP)
7 | NCCCn1cc(C2=C(c3c[nH]c4ccccc34)C(=O)NC2=O)c2ccccc21 [BisIII] | – | – | – | –
– | Cc1ccc(NC(=O)c2ccc(CN3CCN(C)CC3)cc2)cc1Nc1nccc(-c2cccnc2)n1 [Gleevac] | potent inhibitors | potent inhibitors | inhibits tyrosine phosphorylation of Eph kinases in a concentration-dependent manner | inhibits tyrosine phosphorylation of Eph kinases in a concentration-dependent manner
